Measured values published in PubChem BioAssay (NCI).
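Step 1: Grow cells in 96-well plates. Step 2: Expose to compound for 48 hours at 5 concentrations. Step 3: Interpolate endpoints linearly; if unreached, use highest concentration. Definition used: TGI = concentration required for complete inhibition of growth.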

Tests used:
Experiment in all cases: DTP human tumour cell line panel, 48 h
SK-MEL-2 melanoma = system: SK-MEL-2 melanoma
SW-620 colon = system: SW-620 colon
UACC-62 melanoma = system: UACC-62 melanoma
HCC-2998 colon = system: HCC-2998 colon
HOP-92 NSCLC = system: HOP-92 NSCLC
IGROV1 ovarian = system: IGROV1 ovarian
OVCAR-5 ovarian = system: OVCAR-5 ovarian
SN12C renal = system: SN12C renal
TK-10 renal = system: TK-10 renal
SK-MEL-5 melanoma = system: SK-MEL-5 melanoma
NCI-H23 lung = system: NCI-H23 lung
MDA-MB-435 = system: MDA-MB-435
SF-539 CNS = system: SF-539 CNS
LOX IMVI melanoma = system: LOX IMVI melanoma
SK-MEL-28 melanoma = system: SK-MEL-28 melanoma
M14 melanoma = system: M14 melanoma
MALME-3M melanoma = system: MALME-3M melanoma
EKVX NSCLC = system: EKVX NSCLC
NCI-H522 lung = system: NCI-H522 lung
UACC-257 melanoma = system: UACC-257 melanoma
MCF7 breast = system: MCF7 breast
HCT-116 colon = system: HCT-116 colon
SR leukemia = system: SR leukemia
MDA-N = system: MDA-N
ACHN renal = system: ACHN renal
HT29 colon = system: HT29 colon
SF-295 CNS = system: SF-295 CNS
BT-549 breast = system: BT-549 breast
786-0 renal = system: 786-0 renal
NCI-H226 lung = system: NCI-H226 lung
SNB-75 CNS = system: SNB-75 CNS
OVCAR-3 ovarian = system: OVCAR-3 ovarian
T-47D breast = system: T-47D breast
SF-268 CNS = system: SF-268 CNS
CAKI-1 renal = system: CAKI-1 renal
OVCAR-8 ovarian = system: OVCAR-8 ovarian
DU-145 prostate = system: DU-145 prostate
RXF 393 renal = system: RXF 393 renal
K-562 leukemia = system: K-562 leukemia
OVCAR-4 ovarian = system: OVCAR-4 ovarian
MDA-MB-231 breast = system: MDA-MB-231 breast
HS 578T breast = system: HS 578T breast
HOP-62 NSCLC = system: HOP-62 NSCLC
A498 renal = system: A498 renal
MOLT-4 leukemia = system: MOLT-4 leukemia
A549 NSCLC = system: A549 NSCLC
NCI-H460 lung = system: NCI-H460 lung
HCT-15 colon = system: HCT-15 colon
U251 CNS = system: U251 CNS
KM12 colon = system: KM12 colon
PC-3 prostate = system: PC-3 prostate
NCI/ADR-RES ovarian = system: NCI/ADR-RES ovarian
SNB-19 CNS = system: SNB-19 CNS
RPMI-8226 leukemia = system: RPMI-8226 leukemia
COLO 205 colon = system: COLO 205 colon
HL-60(TB) leukemia = system: HL-60(TB) leukemia
SK-OV-3 ovarian = system: SK-OV-3 ovarian
CCRF-CEM leukemia = system: CCRF-CEM leukemia
UO-31 renal = system: UO-31 renal

Clc1ccc(C=NC23CC4CC(CC(C4)C2)C3)cc1Cl
TGI (SK-MEL-2 melanoma): > 10 µM | TGI (SW-620 colon): > 10 µM | TGI (UACC-62 melanoma): > 10 µM | TGI (HCC-2998 colon): > 10 µM | TGI (HOP-92 NSCLC): > 10 µM | TGI (IGROV1 ovarian): > 10 µM | TGI (OVCAR-5 ovarian): > 10 µM | TGI (SN12C renal): > 10 µM | TGI (TK-10 renal): > 10 µM | TGI (SK-MEL-5 melanoma): > 10 µM | TGI (NCI-H23 lung): > 10 µM | TGI (MDA-MB-435): > 10 µM | TGI (SF-539 CNS): > 10 µM | TGI (LOX IMVI melanoma): > 10 µM | TGI (SK-MEL-28 melanoma): > 10 µM | TGI (M14 melanoma): > 10 µM | TGI (MALME-3M melanoma): > 10 µM | TGI (EKVX NSCLC): > 10 µM | TGI (NCI-H522 lung): > 10 µM | TGI (UACC-257 melanoma): > 10 µM | TGI (MCF7 breast): > 10 µM | TGI (HCT-116 colon): > 10 µM | TGI (SR leukemia): > 10 µM | TGI (MDA-N): > 10 µM | TGI (ACHN renal): > 10 µM | TGI (HT29 colon): > 10 µM | TGI (SF-295 CNS): > 10 µM | TGI (BT-549 breast): > 10 µM | TGI (786-0 renal): > 10 µM | TGI (NCI-H226 lung): > 10 µM | TGI (SNB-75 CNS): > 10 µM | TGI (OVCAR-3 ovarian): > 10 µM | TGI (T-47D breast): > 10 µM | TGI (SF-268 CNS): > 10 µM | TGI (CAKI-1 renal): > 10 µM | TGI (OVCAR-8 ovarian): > 10 µM | TGI (DU-145 prostate): > 10 µM | TGI (RXF 393 renal): > 10 µM | TGI (K-562 leukemia): > 10 µM | TGI (OVCAR-4 ovarian): > 10 µM | TGI (MDA-MB-231 breast): > 10 µM | TGI (HS 578T breast): > 10 µM | TGI (HOP-62 NSCLC): > 10 µM | TGI (A498 renal): > 10 µM | TGI (MOLT-4 leukemia): > 10 µM | TGI (A549 NSCLC): > 10 µM | TGI (NCI-H460 lung): > 10 µM | TGI (HCT-15 colon): > 10 µM | TGI (U251 CNS): > 10 µM | TGI (KM12 colon): > 10 µM | TGI (PC-3 prostate): > 10 µM | TGI (NCI/ADR-RES ovarian): > 10 µM | TGI (SNB-19 CNS): > 10 µM | TGI (RPMI-8226 leukemia): > 10 µM | TGI (COLO 205 colon): > 10 µM | TGI (HL-60(TB) leukemia): > 10 µM | TGI (SK-OV-3 ovarian): > 10 µM | TGI (CCRF-CEM leukemia): > 10 µM

Nc1nc(NCC2(CO)CCC2)cc(=O)[nH]1
TGI (SK-MEL-2 melanoma): > 100 µM | TGI (SW-620 colon): > 100 µM | TGI (UACC-62 melanoma): > 100 µM | TGI (HCC-2998 colon): > 100 µM | TGI (HOP-92 NSCLC): > 100 µM | TGI (IGROV1 ovarian): > 100 µM | TGI (OVCAR-5 ovarian): > 100 µM | TGI (SN12C renal): > 100 µM | TGI (SK-MEL-5 melanoma): > 100 µM | TGI (NCI-H23 lung): > 100 µM | TGI (MDA-MB-435): > 100 µM | TGI (LOX IMVI melanoma): > 100 µM | TGI (SK-MEL-28 melanoma): > 100 µM | TGI (M14 melanoma): > 100 µM | TGI (MALME-3M melanoma): > 100 µM | TGI (EKVX NSCLC): > 100 µM | TGI (NCI-H522 lung): > 100 µM | TGI (UACC-257 melanoma): > 100 µM | TGI (MCF7 breast): > 100 µM | TGI (HCT-116 colon): > 100 µM | TGI (SR leukemia): > 100 µM | TGI (MDA-N): > 100 µM | TGI (HT29 colon): > 100 µM | TGI (SF-295 CNS): > 100 µM | TGI (BT-549 breast): > 100 µM | TGI (786-0 renal): > 100 µM | TGI (NCI-H226 lung): > 100 µM | TGI (SNB-75 CNS): > 100 µM | TGI (OVCAR-3 ovarian): > 100 µM | TGI (T-47D breast): > 100 µM | TGI (SF-268 CNS): > 100 µM | TGI (CAKI-1 renal): > 100 µM | TGI (OVCAR-8 ovarian): > 100 µM | TGI (DU-145 prostate): > 100 µM | TGI (UO-31 renal): > 100 µM | TGI (RXF 393 renal): > 100 µM | TGI (K-562 leukemia): > 100 µM | TGI (OVCAR-4 ovarian): > 100 µM | TGI (MDA-MB-231 breast): > 100 µM | TGI (HS 578T breast): > 100 µM | TGI (HOP-62 NSCLC): > 100 µM | TGI (A498 renal): > 100 µM | TGI (MOLT-4 leukemia): > 100 µM | TGI (A549 NSCLC): > 100 µM | TGI (NCI-H460 lung): > 100 µM | TGI (HCT-15 colon): > 100 µM | TGI (U251 CNS): > 100 µM | TGI (KM12 colon): > 100 µM | TGI (PC-3 prostate): > 100 µM | TGI (NCI/ADR-RES ovarian): > 100 µM | TGI (SNB-19 CNS): > 100 µM | TGI (RPMI-8226 leukemia): > 100 µM | TGI (COLO 205 colon): > 100 µM | TGI (HL-60(TB) leukemia): > 100 µM | TGI (SK-OV-3 ovarian): > 100 µM | TGI (CCRF-CEM leukemia): > 100 µM
